ChEMBL document CHEMBL4673219, “Novel 5,6-disubstituted pyrrolo[2,3-d]pyrimidine derivatives as broad spectrum antiproliferative agents: Synthesis, cell based assays, kinase profile and molecular docking study” (Bioorg Med Chem, 2018)
Values joined by “and” are separate entries in the source; they are usually repeats but may differ in a detail not shown here. Equal values may be shown once.

Legend:
Assay type in all cases: functional
T47D [1] = test: Growth inhibition of human T47D cells assessed as growth percentage at 10 uM incubated for 48 hrs by sulforhodamine B assay relative to control; conditions: read-out: Activity
DU-145 [2] = test: Growth inhibition of human DU-145 cells assessed as growth percentage at 10 uM incubated for 48 hrs by sulforhodamine B assay relative to control; conditions: read-out: Activity
SK-OV-3 [3] = test: Growth inhibition of human SK-OV-3 cells assessed as growth percentage at 10 uM incubated for 48 hrs by sulforhodamine B assay relative to control; conditions: read-out: Activity
HCT-15 = test: Growth inhibition of human HCT-15 cells assessed as growth percentage at 10 uM incubated for 48 hrs by sulforhodamine B assay relative to control; conditions: read-out: Activity
CCRF-CEM [4] = test: Growth inhibition of human CCRF-CEM cells assessed as growth percentage at 10 uM incubated for 48 hrs by sulforhodamine B assay relative to control; conditions: read-out: Activity
MDA-MB-468 [5] = test: Growth inhibition of human MDA-MB-468 cells incubated for 48 hrs by sulforhodamine B assay; conditions: Homo sapiens
T47D [6] = test: Growth inhibition of human T47D cells incubated for 48 hrs by sulforhodamine B assay; conditions: Homo sapiens, T47D
SK-OV-3 [7] = test: Growth inhibition of human SK-OV-3 cells incubated for 48 hrs by sulforhodamine B assay
OVCAR-4 = test: Growth inhibition of human OVCAR-4 cells incubated for 48 hrs by sulforhodamine B assay
IGROV-1 [8] = test: Growth inhibition of human IGROV-1 cells incubated for 48 hrs by sulforhodamine B assay
SK-MEL-5 = test: Growth inhibition of human SK-MEL-5 cells incubated for 48 hrs by sulforhodamine B assay; conditions: for CC50: read-out: LC50 (the source's name)
SK-MEL-28 = test: Growth inhibition of human SK-MEL-28 cells incubated for 48 hrs by sulforhodamine B assay
U-251 = test: Growth inhibition of human U-251 cells incubated for 48 hrs by sulforhodamine B assay; conditions: Homo sapiens, U-251, 48 h
KM12 = test: Growth inhibition of human KM12 cells incubated for 48 hrs by sulforhodamine B assay; conditions: Homo sapiens
HCT-116 [9] = test: Growth inhibition of human HCT-116 cells incubated for 48 hrs by sulforhodamine B assay; conditions: Homo sapiens, HCT-116, 48 h
COLO 205 = test: Growth inhibition of human COLO 205 cells incubated for 48 hrs by sulforhodamine B assay
MCF7 [10] = test: Antiproliferative activity against human MCF7 cells assessed as cell growth inhibition measured after 72 hrs by MTT assay
MCF7 [11] = test: Antiproliferative activity against human MCF7 cells assessed as cell growth inhibition at 10 uM measured after 72 hrs by MTT assay relative to control; conditions: read-out: GI
MDA-MB-468 [12] = test: Growth inhibition of human MDA-MB-468 cells assessed as growth percent at 0.1 uM incubated for 48 hrs by sulforhodamine B assay relative to control; conditions: read-out: Activity
T47D [13] = test: Growth inhibition of human T47D cells assessed as growth percentage at 100 uM incubated for 48 hrs by sulforhodamine B assay relative to control; conditions: read-out: Activity
Hs-578T = test: Growth inhibition of human Hs-578T cells assessed as growth percentage at 100 uM incubated for 48 hrs by sulforhodamine B assay relative to control; conditions: read-out: Activity
MDA-MB-231 = test: Growth inhibition of human MDA-MB-231/ATCC cells assessed as growth percentage at 100 uM incubated for 48 hrs by sulforhodamine B assay relative to control; conditions: read-out: Activity
RXF 393 = test: Growth inhibition of human RXF 393 cells assessed as growth percentage at 100 uM incubated for 48 hrs by sulforhodamine B assay relative to control; conditions: read-out: Activity
A498 = test: Growth inhibition of human A498 cells assessed as growth percentage at 100 uM incubated for 48 hrs by sulforhodamine B assay relative to control; conditions: read-out: Activity
LOX IMVI = test: Growth inhibition of human LOX IMVI cells assessed as growth percentage at 100 uM incubated for 48 hrs by sulforhodamine B assay relative to control; conditions: read-out: Activity
HT-29 = test: Growth inhibition of human HT-29 cells assessed as growth percentage at 100 uM incubated for 48 hrs by sulforhodamine B assay relative to control; conditions: read-out: Activity
DU-145 [14] = test: Growth inhibition of human DU-145 cells assessed as growth percentage at 1 uM incubated for 48 hrs by sulforhodamine B assay relative to control; conditions: read-out: Activity
OVCAR-3 = test: Growth inhibition of human OVCAR-3 cells assessed as growth percentage at 1 uM incubated for 48 hrs by sulforhodamine B assay relative to control; conditions: read-out: Activity
HCT-116 [15] = test: Growth inhibition of human HCT-116 cells assessed as growth percentage at 1 uM incubated for 48 hrs by sulforhodamine B assay relative to control; conditions: read-out: Activity
NCI-H226 = test: Growth inhibition of human NCI-H226 cells assessed as growth percentage at 1 uM incubated for 48 hrs by sulforhodamine B assay relative to control; conditions: read-out: Activity
CCRF-CEM [16] = test: Growth inhibition of human CCRF-CEM cells assessed as growth percentage at 1 uM incubated for 48 hrs by sulforhodamine B assay relative to control; conditions: read-out: Activity
TK-10 = test: Growth inhibition of human TK-10 cells assessed as growth percentage at 0.1 uM incubated for 48 hrs by sulforhodamine B assay relative to control; conditions: read-out: Activity
IGROV-1 [17] = test: Growth inhibition of human IGROV-1 assessed as growth percent at 0.1 uM incubated for 48 hrs by sulforhodamine B assay relative to control; conditions: read-out: Activity
UACC-257 = test: Growth inhibition of human UACC-257 cells assessed as growth percentage at 0.1 uM incubated for 48 hrs by sulforhodamine B assay relative to control; conditions: read-out: Activity
Malme-3M = test: Growth inhibition of human Malme-3M cells assessed as growth percentage at 0.1 uM incubated for 48 hrs by sulforhodamine B assay relative to control; conditions: read-out: Activity
SNB-19 = test: Growth inhibition of human SNB-19 cells assessed as growth percentage at 0.1 uM incubated for 48 hrs by sulforhodamine B assay relative to control; conditions: read-out: Activity
SW-620 = test: Growth inhibition of human SW-620 cells assessed as growth percentage at 0.1 uM incubated for 48 hrs by sulforhodamine B assay relative to control; conditions: read-out: Activity
[18] = read-out: LC50 (the source's name)

Nc1nc2[nH]c(CN3CCN(c4cc(Cl)cc(Cl)c4)CC3)c(CN3CCN(c4cc(Cl)cc(Cl)c4)CC3)c2c(=O)[nH]1
growth at 10 µM (T47D [1]): 62.9% | growth at 10 µM (DU-145 [2]): 81.3% | growth at 10 µM (SK-OV-3 [3]): 90.2% | growth at 10 µM (HCT-15): 67.4% | growth at 10 µM (CCRF-CEM [4]): 45.1% | TGI (MDA-MB-468 [5]; MDA-MB-468): 3.75 µM | GI50 (MDA-MB-468 [5]; MDA-MB-468, 48 h): 1.72 µM | TGI (T47D [6]): 4.02 µM | GI50 (T47D [6]; 48 h): 1.78 µM | TGI (SK-OV-3 [7]; 48 h): 17.5 µM and 1.75 µM | GI50 (SK-OV-3 [7]; Homo sapiens, SK-OV-3): 4.62 µM | GI50 (OVCAR-4): 1.58 µM | TGI (OVCAR-4): 3.15 µM | CC50 (OVCAR-4; [18]): 6.25 µM | GI50 (IGROV-1 [8]): 1.95 µM | TGI (IGROV-1 [8]): 3.98 µM | CC50 (SK-MEL-5; 48 h): 2.89 µM | GI50 (SK-MEL-5; Homo sapiens, SK-MEL-5): 1.63 µM | TGI (SK-MEL-5; Homo sapiens, SK-MEL-5): 3.07 µM | CC50 (SK-MEL-5; Homo sapiens, SK-MEL-5, 48 h): 5.76 µM | GI50 (SK-MEL-28): 1.79 µM | TGI (SK-MEL-28): 3.62 µM | GI50 (U-251): 1.67 µM | TGI (U-251): 3.14 µM | CC50 (U-251; [18]): 5.9 µM | TGI (KM12; KM12): 3.42 µM | GI50 (KM12; KM12, 48 h): 1.83 µM | CC50 (KM12; KM12, read-out: LC50 (the source's name)): 6.38 µM | GI50 (HCT-116 [9]): 1.63 µM | TGI (HCT-116 [9]): 3.17 µM | CC50 (HCT-116 [9]; [18]): 6.18 µM | GI50 (COLO 205): 1.69 µM | TGI (COLO 205): 3.56 µM | GI50 (MCF7 [10]): 4.02 µM | inhibition of growth at 10 µM (MCF7 [11]): 82.5% | growth at 0.1 µM (MDA-MB-468 [12]): 94% | growth at 100 µM (T47D [13]): -44% | growth at 100 µM (Hs-578T): -25% | growth at 100 µM (MDA-MB-231): -30% | growth at 100 µM (RXF 393): -28% | growth at 100 µM (A498): -72% | growth at 100 µM (LOX IMVI): -35% | growth at 100 µM (HT-29): -70% | growth at 1 µM (DU-145 [14]): 105% | growth at 1 µM (OVCAR-3): 98% | growth at 1 µM (HCT-116 [15]): 87% | growth at 1 µM (NCI-H226): 93% | growth at 1 µM (CCRF-CEM [16]): 87% | growth at 0.1 µM (TK-10): 103% | growth at 0.1 µM (IGROV-1 [17]): 105% | growth at 0.1 µM (UACC-257): 99% | growth at 0.1 µM (Malme-3M): 90% | growth at 0.1 µM (SNB-19): 91% | growth at 0.1 µM (SW-620): 94%
